Measurements as given in the C3SDB collision cross section collection.
Several values for one entry are separate records, joined by “and”; a condition that tells them apart may be missing. Identical values can stand only once. Counter-ions that a name gives are not always drawn.

Conditions: instrument: DT, single field, calibrated with ESI Low Concentration Tuning Mix (Agilent)

Row | Structure (SMILES) | collision cross section (N2) ([M+Na]+) | collision cross section (N2) ([M-H]-) | collision cross section (N2) ([M+H]+) | also measured
1 | O=C(O)C(O)Cc1ccc(O)cc1 (centres undefined) [HYDROXYPHENYLLACTATE] | 144.2 Å² | 141.9 Å² | – | –
2 | O=C(O)Cc1c[nH]c2ccccc12 [INDOLE-3-ACETATE] | 143.5 Å² | – | 135.9 Å² | –
3 | O=S(=O)(O)Oc1c[nH]c2ccccc12 [INDOXYL SULFATE] | – | 143.3 Å² | – | –
4 | O=c1nc[nH]c2c1ncn2[C@@H]1O[C@H](COP(=O)(O)OP(=O)(O)O)[C@@H](O)[C@H]1O [INOSINE 5'-DIPHOSPHATE] | 184 Å² | – | 186.6 Å² | collision cross section (N2) ([M+Na-2H]-): 180 Å²
5 | O=c1nc[nH]c2c1ncn2[C@@H]1O[C@H](COP(=O)(O)OP(=O)(O)OP(=O)(O)O)[C@@H](O)[C@H]1O [INOSINE TRIPHOSPHATE] | 197 Å² | 189.2 Å² | 193.6 Å² | collision cross section (N2) ([M+Na-2H]-): 182.8 Å²
6 | O=C(O)c1cc(=O)c2ccccc2[nH]1 [KYNURENATE] | 151.1 Å² | 133.9 Å² | 136.7 Å² | –
7 | C[N+](C)(C)C[C@H](O)CC(=O)[O-] [L-CARNITINE] | – | – | 132.9 Å² | –
8 | NCCC[C@H](N)C(=O)O [L-ORNITHINE] | – | – | 127.7 Å² | –
9 | OC[C@H]1O[C@@H](O[C@H]2[C@H](O)[C@@H](O)[C@H](O)O[C@@H]2CO)[C@H](O)[C@@H](O)[C@H]1O [LACTOSE] | 175.3 Å² | 176.9 Å² | – | collision cross section (N2) ([M+K]+): 178.6 Å²
10 | C[C@H](CCC(=O)NCCS(=O)(=O)O)[C@H]1CC[C@H]2[C@@H]3CC[C@@H]4C[C@H](O)CC[C@]4(C)[C@H]3CC[C@]12C [LITHOCHOLYLTAURINE] | 213.1 Å² | 206.6 Å² | – | –
11 | NCCCC[C@H](N)C(=O)O [LYSINE] | 135.5 Å² | 133.5 Å² and 133.7 Å² | 131.2 Å² and 131.4 Å² | –
12 | OC1OC[C@@H](O)[C@H](O)[C@@H]1O (some centres undefined) [LYXOSE] | 136.8 Å² | – | – | –
13 | CSC[C@H]1O[C@@H](n2cnc3c(N)ncnc32)[C@H](O)[C@@H]1O [METHYLTHIOADENOSINE] | 172.4 Å² | 166.9 Å² | 162.5 Å² and 170.7 Å² | –
14 | CC(=O)NCCCNCCCCNCCCN [N1-ACETYLSPERMINE] | 162 Å² | – | 158 Å² | –
15 | CC(=O)N[C@@H](CC(=O)O)C(=O)O [N-ACETYLASPARTATE] | 139.3 Å² | 131 Å² | – | –
16 | CC(=O)N[C@@H](CS)C(=O)O [N-ACETYLCYSTEINE] | 140.9 Å² | – | – | –
17 | CC(=O)NCC(=O)O [N-ACETYLGLYCINE] | 133 Å² | – | – | –
18 | CSCC[C@H](NC(C)=O)C(=O)O [N-ACETYLMETHIONINE] | 150.1 Å² | 142.6 Å² | – | –
19 | CC(=O)NC(Cc1ccccc1)C(=O)O (centres undefined) [N-ACETYLPHENYLALANINE] | 149.4 Å² | 146.9 Å² | – | –
20 | CSCC[C@H](NC=O)C(=O)O [N-FORMYL-L-METHIONINE] | 145.3 Å² | 136.1 Å² | – | –
21 | NC(=O)C1=CN([C@@H]2O[C@H](COP(=O)(O)OP(=O)(O)OC[C@H]3O[C@@H](n4cnc5c(N)ncnc54)[C@H](OP(=O)(O)O)[C@@H]3O)[C@@H](O)[C@H]2O)C=CC1 [NADPH] | – | 246.7 Å² | – | collision cross section (N2) ([M+Na-H]+): 240.5 Å²; collision cross section (N2) ([M+]+): 232.2 Å²
22 | NC(=O)c1ccc[n+]([C@@H]2O[C@H](COP(=O)(O)OP(=O)(O)OC[C@H]3O[C@@H](n4cnc5c(N)ncnc54)[C@H](OP(=O)(O)O)[C@@H]3O)[C@@H](O)[C@H]2O)c1 [NADP] | 240.9 Å² | 230.7 Å² and 230.9 Å² | 232.6 Å² | collision cross section (N2) ([M+H2O-H]-): 243.9 Å²; collision cross section (N2) ([M+Na-2H]-): 231.5 Å² and 231.8 Å²
23 | CCCCCCCC/C=C\CCCCCCCCCCCCCC(=O)[O-] [NERVONATE] | 204.4 Å² | 197.5 Å² | – | –
24 | NC(=O)c1ccc[n+]([C@@H]2O[C@H](COP(=O)([O-])O)[C@@H](O)[C@H]2O)c1 [NICOTINAMIDE MONONUCLEOTIDE] | – | – | 166 Å² | –
25 | Nc1ncnc2c1ncn2[C@@H]1O[C@H](COP(=O)(O)OP(=O)([O-])OC[C@H]2O[C@@H]([n+]3cccc(C(=O)O)c3)[C@H](O)[C@@H]2O)[C@@H](O)[C@H]1OP(=O)(O)O [NICOTINIC ACID ADENINE DINUCLEOTIDE PHOSPHATE] | – | 230.3 Å² | 230.4 Å² | –

Row | Structure (SMILES) | collision cross section (N2) ([M+Na]+) | collision cross section (N2) ([M-H]-) | collision cross section (N2) ([M+H]+) | also measured
26 | NC[C@H](O)c1ccc(O)c(O)c1 [NORADRENALINE] | – | 134.2 Å² | – | collision cross section (N2) ([M-H2O+H]+): 137.2 Å²
27 | CCCC[C@H](N)C(=O)O [NORLEUCINE] | – | 132 Å² | 136 Å² | –
28 | NCCCNCCCN [NORSPERMIDINE] | 132.4 Å² | – | 127.6 Å² | –
29 | CC(=O)OC[C@H](N)C(=O)O [O-ACETYLSERINE] | – | – | 130.5 Å² | –
30 | NCCOP(=O)(O)O [O-PHOSPHOETHANOLAMINE] | – | 123.2 Å² | – | –
31 | N[C@@H](COP(=O)(O)O)C(=O)O [O-PHOSPHOSERINE] | 140.8 Å² | – | – | –
32 | N[C@@H](CCOC(=O)CCC(=O)O)C(=O)O [O-SUCCINYL-HOMOSERINE] | 145.7 Å² | – | 145.9 Å² | collision cross section (N2) ([M+Na-2H]-): 145.8 Å²
33 | O=C(O)CCC(=O)C(=O)O [OXOGLUTARATE] | – | 120.9 Å² | – | –
34 | NC[C@H](O)c1ccc(O)cc1 [P-OCTOPAMINE] | 147.3 Å² | – | – | –
35 | CCCCCCCCCCCCCCCC(=O)O [PALMITATE] | 173.2 Å² | – | – | –
36 | CC(C)(CO)[C@@H](O)C(=O)NCCC(=O)O [PANTOTHENATE] | – | – | 129.9 Å² | –
37 | CCCCCCCCCCC/C=C\CCCCC(=O)[O-] [PETROSELINATE] | – | 175.6 Å² | – | –
38 | N[C@@H](COP(=O)(O)O)C(=O)O [PHOSPHOSERINE] | – | 127.5 Å² | – | collision cross section (N2) ([M+Na-2H]-): 135.1 Å²
39 | O=P(O)(O)OC1C(OP(=O)(O)O)C(OP(=O)(O)O)C(OP(=O)(O)O)C(OP(=O)(O)O)C1OP(=O)(O)O (centres undefined) [PHYTATE] | – | 195.4 Å² | 215.8 Å² | collision cross section (N2) ([M+Na-2H]-): 201.3 Å²
40 | O=C(O)C1CCCCN1 (centres undefined) [PIPECOLATE] | 138.8 Å² and 139.4 Å² | 128.3 Å² and 128.9 Å² | 127.7 Å² and 128 Å² | –
41 | c1ncc2[nH]cnc2n1 [PURINE] | – | 114.3 Å² | 121.9 Å² | –
42 | Cc1ncc(CO)c(C=O)c1O [PYRIDOXAL] | 142.8 Å² | 129 Å² | 131.4 Å² | –
43 | O=C(O)c1ccc[nH]1 [PYRROLE-2-CARBOXYLATE] | – | 113.8 Å² | – | –
44 | O=C(O)c1cccnc1C(=O)O [QUINOLINATE] | – | 126.6 Å² | 132.3 Å² | –
45 | OC[C@H]1O[C@H](OC[C@H]2O[C@H](O[C@]3(CO)O[C@H](CO)[C@@H](O)[C@@H]3O)[C@H](O)[C@@H](O)[C@@H]2O)[C@H](O)[C@@H](O)[C@H]1O [RAFFINOSE] | 208.9 Å² | 197.3 Å² | – | –
46 | C[C@@H]1OC(O)[C@H](O)[C@H](O)[C@H]1O (some centres undefined) [RHAMNOSE] | 142.6 Å² | – | – | –
47 | OC1OC[C@@H](O)[C@@H](O)[C@H]1O (some centres undefined) [RIBOSE] | 135.2 Å² | – | – | –
48 | O=C(/C=C/c1ccc(O)c(O)c1)O[C@@H](Cc1ccc(O)c(O)c1)C(=O)O [ROSMARINATE] | – | 172.7 Å² | – | –
49 | C[C@@H]1NCCc2cc(O)c(O)cc21 [SALSOLINOL] | – | 139.4 Å² | 142.7 Å² | –
